Values of other authors as cited in patent US20260098286A1, “Low Dose Psilocybin in Foodstuff and Microbes for Same” (ATX PHARMERS LLC, priority 2021, published 2026).

How the values were obtained:
[1] = test system: human serotonin-related receptors
[2] = adults
[3] = degrades in the presence of oxygen
[4] = weight per weight basis
[5] = not given; remark: listed apart in the source
[6] = in vivo

Row | Structure (SMILES) | number of human serotonin-related receptors bound [1] | blood plasma concentration at which psychological effects occur [2] | psilocin concentrations in the plasma (average) ([2]; within 2 hours after single 15 mg oral psilocybin dose) | stability in solution [3] | potency relative to LSD (times less potent) [4] | effects begin after ingestion (after ingestion) | effects last (depending on dose, species, and individual metabolism) | half-life of psilocybin (taken orally) | detectability in the urine ([5]; after 7 days) | ingested psilocybin absorbed through the stomach and intestine ([5]; animal studies) | absorbed psilocybin excreted in the bile and feces ([5]; within 24 hours) | absorbed psilocybin excreted into the urine ([5]; within 24 hours) | toxicity [6]
1 | CN(C)CCc1c[nH]c2cccc(O)c12 [psilocin] | over 15 | 4-6 μg/liter | about 8 μg/liter | relatively unstable | – | – | – | – | – | – | – | – | –
2 | CN(C)CCc1c[nH]c2cccc(OP(=O)(O)O)c12 [psilocybin, 4-phosphoryloxy-N,N-dimethyltryptamine] | – | – | – | – | about 100 times | 10 to 40 min | 2 to 6 h | 2.72 ± 1.07 h | still detectable | about 50% | 15-20% | about 65% | low toxicity
